In one assay the target is BTK in mouse bone marrow (Mus musculus (Mouse), UniProt P35991). As to the kind of experiment: Mouse Bone Marrow Assay (MSD ELISA of BTK degradation in bone marrow). As to conditions: female C57BL/6J mice, single dose of Dose A, bone marrow collected after 24 hours. Type of assay: in vivo. The protocol: Female C57BL/6J mice (Jackson Laboratories) were used for this study. Compounds or vehicle/control were prepped with EtOH; PEG-400; Phosal 53 MCT (10:30:60, v/v). Four mice were tested per compound or vehicle/control. On Day 1, mice were administered a single dose of Dose A. On Day 2 (after 24 hours), tissue (bone marrow) was collected from one hind leg per mouse.
BTK in mouse bone marrow, sequence (P35991 whole entry): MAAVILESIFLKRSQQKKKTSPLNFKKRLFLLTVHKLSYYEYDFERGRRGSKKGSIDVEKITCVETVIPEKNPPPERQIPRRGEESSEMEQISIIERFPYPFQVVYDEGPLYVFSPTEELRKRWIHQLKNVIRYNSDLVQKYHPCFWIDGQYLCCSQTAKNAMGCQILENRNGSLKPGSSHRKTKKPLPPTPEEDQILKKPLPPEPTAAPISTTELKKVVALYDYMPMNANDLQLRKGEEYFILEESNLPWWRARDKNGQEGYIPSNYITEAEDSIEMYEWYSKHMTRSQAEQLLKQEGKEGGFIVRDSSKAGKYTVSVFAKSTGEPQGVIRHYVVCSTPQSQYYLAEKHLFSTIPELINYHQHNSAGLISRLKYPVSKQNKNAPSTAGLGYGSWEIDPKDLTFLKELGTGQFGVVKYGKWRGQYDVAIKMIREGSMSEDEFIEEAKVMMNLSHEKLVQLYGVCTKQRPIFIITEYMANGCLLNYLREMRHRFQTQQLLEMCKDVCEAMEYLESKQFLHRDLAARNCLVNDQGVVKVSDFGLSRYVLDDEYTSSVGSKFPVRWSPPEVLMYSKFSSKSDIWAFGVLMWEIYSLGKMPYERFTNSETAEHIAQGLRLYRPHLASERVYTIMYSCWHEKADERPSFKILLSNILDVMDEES
An MSD (Meso Scale Discovery) ELISA (enzyme-linked immunosorbent assay) based assay was used to determine BTK degradation in mouse bone marrow. The following materials and equipment were used: 10% NP40 solution (nonionic polyoxyethylene surfactant, ThermoFisher, cat no. 28324); protease inhibitor mini tablet (Roche, cat no. 05 892 970 001); PhosphoSTOP™ tablet (Roche, cat no. 04 906 837 001); Pierce™ BCA Protein Assay Kit (Thermofisher, Cat No. 23225); Precellys® 2 mL lysing tube with 2.8 mm beads (VWR, cat no. 10032-756); Bertin Precellys® 24/Cryolys® cooling system; 96-well MSD streptavidin pre-coated plates (MSD, cat no. L15SA-1); MSD Blocker A (MSD, cat no. R93BA-4); capture antibody, biotinylated BTK mAb (BD Biosciences, cat no. 624008; custom order); primary detection antibody, BTK RpAb (rabbit polyclonal antibody, CST, cat no. 8547S, D3H5 clone); secondary detection antibody, anti-Rabbit-Sulfo-Tag (MSD, cat no. R32AB-1); read Buffer, 4× (MSD, cat no. R92TC-1); recombinant BTK protein (Thermofisher, cat no. PR5442A); MSD Tris Wash Buffer (10×) (MSD, cat no. R61TX-1); PBS (phosphate-buffered saline); deionized water (diH2O); Lysis Buffer [0.2% NP40 in PBS+Protease Inhibitor tablet (1 tablet/10 mL)+PhosphoSTOP tablet (1 tablet/10 mL)]; 3% MSD Blocker A [MSD Blocker A+450 mL diH2O+50 mL]; and 10×MSD Tris Wash Buffer.
Lysis buffer [(PBS+0.2% NP40+PI (protease inhibitor)+PhosphoSTOP)] was prepared and put on ice until it was fully cold. Ice cold lysis buffer […] was added to each Precellys® tube containing beads and bone marrow sample. Sample tubes were transferred into Precellys® machine and homogenized using 5000 rpm—2×20 seconds. The sample lysates were centrifuged at 14,000 rpm for 20 minutes at 4° C. after homogenizing.
The protein concentration was determined using Pierce™ BCA Protein Assay Kit following manufacturer's recommended protocol. The protein normalized working solution was prepared, using 30 μg protein per sample lysate for assay.
A 300 ng/ml working stock solution of recombinant BTK protein in lysis buffer was prepared, and the sample was serially diluted at 3-fold dilution (10-point assay, highest concentration was 300 ng/mL and lowest concentration was 0.015 ng/mL)
MSD plate coating: Coating antibody (biotinylated-BTK mAb) stock solution was prepared at 1 μg/mL in PBS buffer. 50 μL/well capture antibody (Biotinylated BTK mAb) solution was added, and the plates were shaken gently at ambient temperature for two hours. The plates were washed 3 times with 1×MSD Tris Wash Buffer in a plate washer (300 μL/well), and the plates were blocked with 3% MSD Blocker A (150 μL/well). The plates were incubated for an additional 1-2 hours at ambient temperature with gentle shaking. The plates were washed 3 times with 1×MSD wash buffer using plate washer. Bone marrow lysates (30 μg) at a final volume of 50 μL/well were added into the plates. The serially diluted standard samples were added to the same plates at a final volume of 50 μL/well. The plates were incubated overnight at 4° C. with gentle shaking.
The plates were washed three times with 1×MSD wash buffer (prepared from 10× concentration buffer) using plate washer. Primary detection antibody at 50 μL/well was added (BTK RpAb; 1:1000 dilution in 1% MSD Blocker A). The plates were incubated for two hours at ambient temperature with gentle shaking. The plates were washed three times with 1×MSD wash buffer using plate washer. Anti-Rabbit-SULFO-TAG secondary antibodies (50 μl/well) were added, 1:500 diluted in 1% MSD Blocker A, and the plates were incubated for one to two hours at ambient temperature. […]

In assay [1] the target is BTK protein in human whole blood (Homo sapiens (Human), UniProt Q06187). As to the kind of experiment: Btk protein in human whole blood MSD ELISA based assay (BTK degradation). It is filed as cell-based. As to conditions: 6 hours, maximum BTK degradation compared to DMSO only treated samples, read-out: hWB BTK dMax (%). The procedure:
Btk protein degradation was tested using an Meso Scale Discovery-ELISA system (MSD-ELISA): (1) Test compounds were added to human whole blood; (2) human whole blood cells treated with test compounds were lysed; (3) lysed cells were treated with capture antibody, an antibody to Btk; (4) lysed cells were treated with […] to Btk; and (5) lysed cells were treated with anti-mouse antibody (tagged).
Specifically, about 80 μl of fresh human whole blood from healthy donors was transferred into each well of a 96-well V-bottom plate (Costar, Cat No. 3894). Using a TECAN™ D300e Digital Dispenser (Tecan)), 1:4 serially diluted compounds [(8 pt assay) in DMSO solution (final 0.2%) starting at 3 μM top concentration], were added in duplicate. Thereafter, plates were placed in a 37° C. incubator and incubated for 6 hours.
At the end of incubation, 80 μl of 2×CST lysis buffer (Cell Signaling Technology, Cat No. 9803), prepared from a 10× stock solution, was added per well to lyse the blood. Plates were then sealed with a plate sealer and the samples were frozen overnight at −80° C.
Total amount of BTK protein remaining in the blood samples after compound treatment was measured using MSD-ELISA. After thawing the frozen plates, blood lysates were mixed thoroughly and transferred to small spot high-bind MSD plates (Meso Scale Discovery, Cat No. L45XB-3) and coated with capturing antibody, rabbit anti-human BTK (D3H5) (Cell Signaling Technology, Cat No. 8547CF). Thereafter, primary detection antibody, mouse anti-human BTK monoclonal antibody, (BD Biosciences, Cat No. 611117) and secondary detection antibody, anti-mouse SULFO-TAG (Meso Scale Discovery, Cat No. R32AC-1) were added. The assay plates were read on an MSD S600 plate reader by the addition of 2×MSD read buffer (Meso Scale Discovery, R92TC-1). All reagent transfers, including blood lysis, was conducted using a Biomed i7 liquid handler. From the dose response curves, DC50 values were calculated by averaging data from duplicate experiments. and Curve fitting was done by non-linear regression using GraphPad Prism. The DC50 values are reported in Table 2 in the hWB BTK DC50 (nM) column The Dmax values represent the maximum amount of BTK degradation observed upon compound treatment compared to DMSO only treated samples. The dMax (%) values are reported in Table 2 in the hWB BTK dMax (%) column.
Background: An ELISA detects its analyte on a solid surface through an enzyme-linked reagent.

The source of these data is patent US12172992B2, “Pyrimidines for degrading Bruton's tyrosine kinase” (AbbVie Inc., priority 2022, dated 2024).

Usually Dmax stands for the greatest extent of degradation seen.

BTK protein in human whole blood, sequence (Q06187 whole entry): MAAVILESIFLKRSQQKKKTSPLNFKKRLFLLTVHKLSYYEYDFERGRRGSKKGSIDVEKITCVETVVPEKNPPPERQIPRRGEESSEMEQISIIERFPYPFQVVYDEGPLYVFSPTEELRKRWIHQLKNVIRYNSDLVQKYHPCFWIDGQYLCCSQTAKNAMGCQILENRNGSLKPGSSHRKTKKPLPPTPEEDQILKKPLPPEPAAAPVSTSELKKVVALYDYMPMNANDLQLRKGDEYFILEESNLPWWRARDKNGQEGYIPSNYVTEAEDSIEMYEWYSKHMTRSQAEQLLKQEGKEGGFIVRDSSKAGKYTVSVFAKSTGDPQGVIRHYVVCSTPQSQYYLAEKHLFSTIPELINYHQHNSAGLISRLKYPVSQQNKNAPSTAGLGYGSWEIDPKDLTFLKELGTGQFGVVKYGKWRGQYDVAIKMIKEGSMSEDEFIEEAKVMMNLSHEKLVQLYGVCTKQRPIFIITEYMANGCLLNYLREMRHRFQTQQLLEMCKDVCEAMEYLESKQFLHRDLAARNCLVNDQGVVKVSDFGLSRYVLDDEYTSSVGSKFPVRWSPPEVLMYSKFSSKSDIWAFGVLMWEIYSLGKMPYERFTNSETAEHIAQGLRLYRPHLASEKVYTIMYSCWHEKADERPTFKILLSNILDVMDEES

As for `CC[C@@H]1CN(CCc2ccc(N3CCC(=O)NC3=O)cc2)CCN1c1ccc(Nc2cc(-c3ccc([C@@H](C)NC(=O)c4nc(C(C)(C)C)no4)c(C)c3)ncn2)nc1` [Example 8, 3-tert-butyl-N-[(1R)-1-{4-[6-({5-[(2R)-4-{2-[4-(2,4-dioxo-1,3-diazinan-1-yl)phenyl]ethyl}-2-ethylpiperazin-1-yl]pyridin-2-yl}amino)pyrimidin-4-yl]-2-methylphenyl}ethyl]-1,2,4-oxadiazole-5-carboxamide], on BTK in mouse bone marrow, the “Mouse Bone Marrow (%) (% remaining BTK, vehicle versus treated)” value turned out to be 30%. Also, in assay [1], the maximal degradation (Dmax) was 98.6%.
In the case of `Cc1cc(-c2cc(Nc3ccc(N4CCN(CCc5ccc(N6CCC(=O)NC6=O)cc5)CC4(C)C)cn3)ncn2)ccc1[C@@H](C)NC(=O)c1nc(C(C)(C)C)no1` [Example 9, 3-tert-butyl-N-{(1R)-1-[4-(6-{{5-(4-{2-[4-(2,4-dioxo-1,3-diazinan-1-yl)phenyl]ethyl}-2,2-dimethylpiperazin-1-yl)pyridin-2-yl}amino}pyrimidin-4-yl)-2-methylphenyl]ethyl}-1,2,4-oxadiazole-5-carboxamide], the “Mouse Bone Marrow (%) (% remaining BTK, vehicle versus treated)” value at BTK in mouse bone marrow was found to be 31%. In assay [1], the Dmax was 99.5%.
For `Cc1c([C@@H](C)NC(=O)c2nc(C(C)(C)C)no2)ccc(-c2cc(Nc3ccc(N4CCN(CCc5ccc(N6CCC(=O)NC6=O)cc5)C[C@@H]4C)cn3)ncn2)c1F` [Example 10, 3-tert-butyl-N-[(1R)-1-{4-[6-({5-[(2S)-4-{2-[4-(2,4-dioxo-1,3-diazinan-1-yl)phenyl]ethyl}-2-methylpiperazin-1-yl]pyridin-2-yl}amino)pyrimidin-4-yl]-3-fluoro-2-methylphenyl}ethyl]-1,2,4-oxadiazole-5-carboxamide], the “Mouse Bone Marrow (%) (% remaining BTK, vehicle versus treated)” value at BTK in mouse bone marrow came out at 9%. For the same molecule, in assay [1], the Dmax stood at 98.5%.
For `Cc1c([C@@H](C)NC(=O)c2nc(C(C)(C)C)no2)ccc(-c2cc(Nc3ccc(N4CCN(CCc5ccc(N6CCC(=O)NC6=O)cc5)CC4)cn3)ncn2)c1F` [Example 11, 3-tert-butyl-N-{(1R)-1-[4-(6-{[5-(4-{2-[4-(2,4-dioxo-1,3-diazinan-1-yl)phenyl]ethyl}piperazin-1-yl)pyridin-2-yl]amino}pyrimidin-4-yl)-3-fluoro-2-methylphenyl]ethyl}-1,2,4-oxadiazole-5-carboxamide] the same measures were 29% and 97.7%.
For `Cc1cc(-c2cc(Nc3ccc(N4CCN(CCc5ccc(N6CCC(=O)NC6=O)cc5)CC4)cn3)ncn2)c(F)cc1[C@@H](C)NC(=O)c1nc(C(C)(C)C)no1` [Example 12, 3-tert-butyl-N-{(1R)-1-[4-(6-{[5-(4-{2-[4-(2,4-dioxo-1,3-diazinan-1-yl)phenyl]ethyl}piperazin-1-yl)pyridin-2-yl]amino}pyrimidin-4-yl)-5-fluoro-2-methylphenyl]ethyl}-1,2,4-oxadiazole-5-carboxamide] the same measures were 17% and 99.8%.
For `Cc1cc(-c2cc(Nc3ccc(N4CCN(CCc5ccc(N6CCC(=O)NC6=O)cc5)C[C@@H]4C(C)C)cn3)ncn2)ccc1[C@@H](C)NC(=O)c1nc(C(C)(C)C)no1` [Example 13, 3-tert-butyl-N-[(1R)-1-{4-[6-({5-[(2S)-4-{2-[4-(2,4-dioxo-1,3-diazinan-1-yl)phenyl]ethyl}-2-(propan-2-yl)piperazin-1-yl]pyridin-2-yl}amino)pyrimidin-4-yl]-2-methylphenyl}ethyl]-1,2,4-oxadiazole-5-carboxamide] the same measures were 26% and 99%.
`C[C@@H](NC(=O)c1nc(C(C)(C)C)no1)c1ccc(-c2cc(Nc3ccc(N4CCN(CCc5ccc(N6CCC(=O)NC6=O)cc5)C[C@@H]4C)cn3)ncn2)cc1Cl` [Example 14, 3-tert-butyl-N-[(1R)-1-{2-chloro-4-[6-({5-[(2S)-4-{2-[4-(2,4-dioxo-1,3-diazinan-1-yl)phenyl]ethyl}-2-methylpiperazin-1-yl]pyridin-2-yl}amino)pyrimidin-4-yl]phenyl}ethyl]-1,2,4-oxadiazole-5-carboxamide]: the “Mouse Bone Marrow (%) (% remaining BTK, vehicle versus treated)” value at BTK in mouse bone marrow was 16%. Besides, the Dmax in assay [1] is 99.7%.
Take `Cc1cc(-c2cc(Nc3ccc(N4CCN(CCc5ccc(N6CCC(=O)NC6=O)cc5)C[C@@H]4C)cc3)ncn2)ccc1[C@@H](C)NC(=O)c1nc(C(C)(C)C)no1` [Example 18]: the “Mouse Bone Marrow (%) (% remaining BTK, vehicle versus treated)” value at BTK in mouse bone marrow worked out at 25%. The Dmax in assay [1] worked out at 99.5%.
For `Cc1cc(-c2cc(Nc3ccc(CCN4CCN(c5ccc(N6CCC(=O)NC6=O)cc5)CC4)cn3)ncn2)ccc1[C@@H](C)NC(=O)c1nc(C(C)(C)C)no1` [Example 19] the same measures were 51% and 100%.
